This assay concerns the target Muscarinic acetylcholine receptor (Cavia porcellus, UniProt Q8VH26). The experiment in a line: Muscarinic acetylcholine receptor M3 agonistic/antagonistic activity in guinea pig ileum.
Sequence of Muscarinic acetylcholine receptor (Q8VH26 whole entry): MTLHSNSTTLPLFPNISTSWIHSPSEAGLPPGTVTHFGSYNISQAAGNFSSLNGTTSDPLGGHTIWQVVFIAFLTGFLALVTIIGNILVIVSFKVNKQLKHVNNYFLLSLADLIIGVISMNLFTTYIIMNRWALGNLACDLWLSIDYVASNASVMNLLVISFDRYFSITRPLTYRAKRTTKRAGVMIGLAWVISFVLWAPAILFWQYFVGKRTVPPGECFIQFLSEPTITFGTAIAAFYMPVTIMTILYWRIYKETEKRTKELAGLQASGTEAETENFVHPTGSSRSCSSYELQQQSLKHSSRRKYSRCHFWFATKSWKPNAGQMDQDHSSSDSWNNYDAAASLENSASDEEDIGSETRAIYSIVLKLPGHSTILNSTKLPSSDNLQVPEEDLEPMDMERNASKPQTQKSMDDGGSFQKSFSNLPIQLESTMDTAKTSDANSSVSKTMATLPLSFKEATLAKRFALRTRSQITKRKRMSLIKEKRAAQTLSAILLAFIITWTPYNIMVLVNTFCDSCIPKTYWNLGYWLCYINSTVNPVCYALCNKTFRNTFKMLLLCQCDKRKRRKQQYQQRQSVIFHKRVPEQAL
By EC50 is commonly meant the concentration needed to bring the measured effect to its halfway point. Low values mean higher potency in that assay, high ones lower potency in that assay. For the compound `CC(C#CCN1CCCC1)N1CCCC1=O` (stereo not drawn), the 50% effective concentration (EC50) is less than 1 nM.

Compound `CC(C#CCN1CCCC1)N(C)C(N)=O` (stereo not drawn) displayed an EC50 of less than 1 nM.

Take `CC(C#CCN1CCCC1)N1CCNC1=O` (stereo not drawn): the half-maximal effective concentration (EC50) is less than 1 nM.
